The target in one test is Histamine H3 receptor (Homo sapiens, UniProt Q9Y5N1). As to the kind of experiment: Antagonist activity at human H3 receptor by TR-FRET assay. It counts as functional. (In general: In TR-FRET formats the signal depends on donor and acceptor labels being close together.)
Test [1] can be described thus: Inhibition of copper-induced amyloid beta (1 to 42) (unknown origin) aggregation at 50 uM measured after 24 hrs by transmission electron microscopic analysis.
The target in test [2] is T1, Amyloid-beta precursor protein (Homo sapiens, UniProt P05067). Kind of test: Inhibition of amyloid beta (1 to 42) (unknown origin) self-induced aggregation at 20 uM incubated for 24 hrs by Thioflavin T based fluorometric assay relative to control.
T1 sequence (P05067 whole entry): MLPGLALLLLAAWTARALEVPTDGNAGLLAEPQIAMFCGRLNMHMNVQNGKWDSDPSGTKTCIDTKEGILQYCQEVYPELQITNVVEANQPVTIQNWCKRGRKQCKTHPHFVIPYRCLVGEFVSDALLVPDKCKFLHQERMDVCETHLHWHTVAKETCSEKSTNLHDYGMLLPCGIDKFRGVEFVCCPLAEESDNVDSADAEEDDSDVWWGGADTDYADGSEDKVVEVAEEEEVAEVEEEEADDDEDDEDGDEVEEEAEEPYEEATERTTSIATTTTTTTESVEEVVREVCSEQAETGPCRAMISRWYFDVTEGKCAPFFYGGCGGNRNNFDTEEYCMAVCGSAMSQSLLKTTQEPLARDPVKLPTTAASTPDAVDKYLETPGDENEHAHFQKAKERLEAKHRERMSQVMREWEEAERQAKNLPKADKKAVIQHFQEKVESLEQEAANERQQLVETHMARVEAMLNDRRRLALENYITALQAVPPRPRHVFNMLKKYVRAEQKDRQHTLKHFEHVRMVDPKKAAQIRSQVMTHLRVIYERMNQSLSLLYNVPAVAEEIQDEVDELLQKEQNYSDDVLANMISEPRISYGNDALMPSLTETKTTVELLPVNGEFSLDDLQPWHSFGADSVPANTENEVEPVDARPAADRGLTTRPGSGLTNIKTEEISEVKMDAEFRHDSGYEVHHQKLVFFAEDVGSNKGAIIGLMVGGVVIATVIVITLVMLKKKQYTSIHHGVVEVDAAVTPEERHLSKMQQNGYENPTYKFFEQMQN
For test [3], the target named is T1, Amyloid-beta precursor protein. Kind of test: Inhibition of amyloid beta (1 to 42) (unknown origin) self-induced aggregation incubated for 24 hrs by Thioflavin T based fluorometric assay.
Test [4] shares this target. As to the kind of experiment: Inhibition of amyloid beta (1 to 42) (unknown origin) self-induced aggregation at 20 uM incubated for 24 hrs by transmission electron microscopic analysis.
Test [5] is described as follows: Inhibition of copper-induced amyloid beta (1 to 42) (unknown origin) aggregation at 50 uM measured after 24 hrs by thioflavin T based fluorescence assay.
Test [6] can be described thus: Disaggregation of copper-induced amyloid beta (1 to 42) (unknown origin) preformed fibrils at 50 uM measured after 24 hrs by transmission electron microscopic analysis.
A short description of test [7]: Metal chelating activity assessed as compound-Cu2+ complex formation by UV-Vis spectroscopic analysis.
Test [8] is described as follows: Disaggregation of copper-induced amyloid beta (1 to 42) (unknown origin) preformed fibrils at 50 uM measured after 24 hrs by ThT fluorescence assay.
Test [9] has as its target T1, Amyloid-beta precursor protein. As to the kind of experiment: Disaggregation of self-induced amyloid beta (1 to 42) (unknown origin) preformed fibrils assessed as reduction in fluorescence intensity at 20 uM after 24 hrs by thioflavin-T fluorescence assay relative to control. Set-up: scale not given: the % may be the effect or the level left.
The nature of test [10]: Metal chelating activity assessed as formation of Cu2+-compound complex stoichiometry ratio of 2:1 in presence of CuCl2 by Job's plot analysis.
The target of test [11] is T1, Amyloid-beta precursor protein. Kind of test: Disaggregation of self-induced amyloid beta (1 to 42) (unknown origin) preformed fibrils at 20 uM measured after 24 hrs by transmission electron microscopic analysis.
The nature of test [12]: Metal chelating activity assessed as mole fraction required to show 2:1 stoichiometry ratio for compound-Cu2+ complex formation in presence of CuCl2 by Job's plot analysis.
The nature of test [13]: Antioxidant activity assessed as trolox equivalent antioxidant capacity. It counts as functional.
Test [14] can be described thus: Metal chelating activity assessed as compound-Fe3+ complex formation by UV-Vis spectroscopic analysis.

Activity calls are given as the source filed them. No cut-off for these calls is given here.

As usually defined, the IC50 is the concentration at which inhibition is half-maximal. Usually inhibition stands for the share of the control response that was lost under treatment.

Chain of Histamine H3 receptor (Q9Y5N1 whole entry): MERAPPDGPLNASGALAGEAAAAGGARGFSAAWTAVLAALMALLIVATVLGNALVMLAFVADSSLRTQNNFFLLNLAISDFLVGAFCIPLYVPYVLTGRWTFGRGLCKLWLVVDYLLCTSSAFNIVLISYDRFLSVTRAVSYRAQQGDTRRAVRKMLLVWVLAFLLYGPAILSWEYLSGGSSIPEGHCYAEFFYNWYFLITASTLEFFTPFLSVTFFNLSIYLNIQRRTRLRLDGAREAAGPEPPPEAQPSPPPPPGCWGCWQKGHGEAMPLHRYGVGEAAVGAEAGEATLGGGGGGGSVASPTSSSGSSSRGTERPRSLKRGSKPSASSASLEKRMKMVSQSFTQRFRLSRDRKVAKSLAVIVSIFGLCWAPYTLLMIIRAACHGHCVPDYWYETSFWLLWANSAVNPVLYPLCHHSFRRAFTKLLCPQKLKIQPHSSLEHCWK

On to `O=c1cc(/C=C/c2ccc(OCCCN3CCCC3)cc2)occ1O`, for which the IC50 at Histamine H3 receptor was 8.25 nM; in test [3], 2240 nM. Also, the inhibition result in test [1], in test [4] and in test [5] was “Active” in each case. In test [2], this molecule had an inhibition of 91.4%. Further, the outcome in test [6], in test [7], in [8], in test [10], in test [11] and in test [14] was Active. Further, the Activity in [9] amounted to 35.1%; in test [13] it was 4.97. Further, the Activity (mole fraction) in test [12] was 0.671.

Take `Cn1cc(O)c(=O)cc1/C=C/c1ccc(OCCCN2CCOCC2)cc1`: the figures for the IC50 (against Histamine H3 receptor; in test [3]) were 30.1 nM and 5320 nM, respectively. Besides, in test [2], the inhibition stood at 71.9%. In [13], the Activity is 1.35.

With `CN(C)CCCOc1ccc(/C=C/c2cc(=O)c(O)cn2C)cc1`, the IC50 worked out at 85.4 nM on Histamine H3 receptor and 6180 nM in test [3]. This molecule also gave an inhibition in [2] of 70.4%. In addition, in test [13], the Activity amounted to 1.34.

`Cn1cc(O)c(=O)cc1/C=C/c1ccc(OCCCN2CCCC2)cc1`: the values for the IC50 (against Histamine H3 receptor; in test [3]) were 3.37 nM and 3290 nM, respectively. The same molecule displayed an inhibition in [2] of 85.4%. Moreover, the outcome in test [7] and in test [14] was Active. In addition, the Activity in [13] worked out at 1.28.

As to `Cc1oc(/C=C/c2ccc(OCCCN3CCCCC3)cc2)cc(=O)c1O`, the concentration for half-maximal inhibition (IC50) is 2.65 nM on Histamine H3 receptor and 6260 nM in [3]. Besides, in [2], the inhibition is 74.8%. The Activity in [13] came to 1.74.

For the molecule `CCN(CC)CCCC(C)Nc1ccnc2cc(Cl)ccc12` (centres undefined), the result in [6] and in test [8] was Active.

`Cc1oc(/C=C/c2ccc(OCCCN3CCCC3)cc2)cc(=O)c1O`: the figures for the IC50 (against Histamine H3 receptor; in [3]) were 4.91 nM and 7010 nM, respectively. The molecule further registered an inhibition in test [2] of 74.7%. The Activity in test [13] was 2.12.

In turn, `Oc1cccc2ccc(/C=C/c3ccc(OCCCN4CCCC4)cc3)nc12` gave an IC50 against Histamine H3 receptor of 16 nM. In addition, the inhibition in test [2] turned out to be 17.6%. Besides, the Activity in [13] was found to be 0.73.

For the molecule `O=c1cc(/C=C/c2ccc(OCCCN3CCOCC3)cc2)occ1O`, the IC50 on Histamine H3 receptor came out at 68.8 nM; in test [3], 4120 nM. Also, the inhibition in test [2] stood at 93.3%. In addition, in test [13], the Activity was determined as 4.39.

As to `CN1CCN(CCCOc2ccc(/C=C/c3cc(=O)c(O)co3)cc2)CC1`, the results for the IC50 (against Histamine H3 receptor; in test [3]) were 178 nM and 5540 nM, respectively. For the same molecule, the inhibition in [2] was determined as 89.8%. Also, the Activity in test [13] was 4.05.

Consider `Cn1cc(O)c(=O)cc1/C=C/c1ccc(OCCCN2CCCCC2)cc1`, for which the IC50 against Histamine H3 receptor was 4.74 nM; in test [3], 2570 nM. This molecule also showed an inhibition in [2] of 87%. The result in test [7] and in test [14] was Active. Besides, the Activity in test [13] was 1.23.

Consider `CCN(CC)CCCOc1ccc(/C=C/c2cc(=O)c(O)co2)cc1`, for which the IC50 at Histamine H3 receptor stood at 16.9 nM; in [3] it was 3950 nM. This molecule came in with an inhibition in test [2] of 94.6%. Also, the result in test [7] and in [14] was Active. For the same molecule, in test [13], the Activity is 5.08.

For the molecule `CCN(CC)CCCOc1ccc(/C=C/c2cc(=O)c(O)cn2C)cc1`, the IC50 against Histamine H3 receptor was found to be 7.06 nM; in test [3], 5380 nM. In test [2], this molecule showed an inhibition of 85%. Moreover, the outcome in test [7] and in [14] was Active. Further, in test [13], the Activity was found to be 1.43.

For `Cc1c(C)c2c(c(C)c1O)CCC(C)(C(=O)O)O2` (centres undefined), in test [13], the Activity is 1.

As to `O=c1cc(/C=C/c2ccc(OCCCN3CCCCC3)cc2)occ1O`, the IC50 at Histamine H3 receptor was 2.74 nM; in [3], 3260 nM. For the same molecule, the inhibition entry in test [1], in [4] and in test [5] was “Active” each time. In addition, the inhibition in test [2] stood at 90.8%. Moreover, the result in test [6], in test [7], in [8], in [10], in test [11] and in test [14] was Active. In addition, the results for the Activity in test [9] and in test [13] were 29.4% and 5.22, respectively. Further, the Activity (mole fraction) in test [12] was 0.682.

Turning to `O=c1cc(/C=C/c2ccc(O)cc2)occ1O`, in test [13], the Activity is 2.03.

At Histamine H3 receptor, `Oc1cccc2ccc(/C=C/c3ccc(OCCCN4CCCCC4)cc3)nc12` registered a concentration for half-maximal inhibition (IC50) of 14.5 nM. Also, the inhibition in [2] is 15.7%. For the same molecule, the Activity in test [13] amounted to 0.96.

For `CCn1cc(O)c(=O)cc1/C=C/c1ccc(OCCCN2CCCCC2)cc1`, the half-maximal inhibitory concentration (IC50) was found to be 5.07 nM against Histamine H3 receptor and 3050 nM in test [3]. Further, the inhibition in test [2] amounted to 86.8%. In addition, the outcome in [7] and in [14] was Active. The Activity in test [13] was 1.78.

Turning to `CN(C)CCCOc1ccc(/C=C/c2cc(=O)c(O)co2)cc1`, the figures for the IC50 (on Histamine H3 receptor; in test [3]) were 104 nM and 4510 nM, respectively. Also, in test [2], the inhibition is 76.7%. The Activity in test [13] was 2.21.

Consider `CCn1cc(O)c(=O)cc1/C=C/c1ccc(OCCCN2CCCC2)cc1`, for which the values for the IC50 (on Histamine H3 receptor; in [3]) were 2.18 nM and 2070 nM, respectively. Further, the inhibition in [2] came to 97.6%. Besides, the outcome in test [7] and in test [14] was Active. For the same molecule, the Activity in [13] stood at 1.43.

Consider `CN1CCN(CCCOc2ccc(/C=C/c3cc(=O)c(O)cn3C)cc2)CC1`, for which the results for the IC50 (against Histamine H3 receptor; in test [3]) were 353 nM and 6020 nM, respectively. The same molecule yielded an inhibition in [2] of 75.7%. The Activity in test [13] came out at 0.73.

With `COc1cc(/C=C/C(=O)CC(=O)/C=C/c2ccc(O)c(OC)c2)ccc1O`, the Activity in test [13] worked out at 1.11.

The values are drawn from ChEMBL document CHEMBL4811320, “Design, synthesis and biological evaluation of 2-styryl-5-hydroxy-4-pyrone derivatives and analogues as multiple functional agents with the potential for the treatment of Alzheimer's disease” (Bioorg Med Chem, 2021).
